Results published in patent publication US20230158066A1, “ENCAPSULATED CARBONYL IRON SALT COMPOSITIONS AND PROCESS THEREOF” (priority 2020, published 2023).

test: Particle density (bulk density), USP <616> method 1; type: physicochemical; details: untapped powder, W/V0
Text: Particle density or Bulk density is the density of the solids (determined by the composition), which determines the particle density, together with the amount of occluded air. It's the ratio of mass to volume (including the inter-particulate void volume) of an untapped powder sample. It depends on both the density of powder particle and arrangement of the particles. The bulk density influenced by preparation method, treatment and storage of the samples.
The method used as per the reference of USP general chapter <616> method 1. • 1. Pass a quantity of material sufficient to complete the test through sieve greater than equal to 1 mm, if necessary to break up agglomerates that may formed. • 2. Fill the test sample approx. 150 g with 0.1% accuracy (W) in dry gradual 250 mL cylinder (readable to 2 mL) carefully. • 3. Read the unsettled apparent volume (V0) to the nearest graduated unit. • 4. Calculate the particle density by following formula;

Compound	Particle density [g/mL]
O=C([O-])/C=C/C(=O)[O-].[Fe+2] [Ferrous fumarate]	2.14
Ferrous sulfate	1.26
Ferrous Ascorbate	0.75
